Data taken from US4068003A, “Method of medical treatment of myasthenia” (priority 1976, dated 1978).

Experiments:
[1] = Clinical test in myasthenia gravis, case [I] (person); assay type: in vivo, human
Procedure: (§1) The effects of the present invention for the treatment of myasthenia gravis will be shown with reference to the results of clinical tests.
They were attacked with myasthenia. […] Ambenonium is a cholinesterase inhibitor and available, for example, under the trademark Myterase. One year before the first medical examination in this hospital, they took 20 mg/day of Ambenonium.
At the first medical examination, drooping of the left eyelid, disorder in the movement of the left eyeball and fatiguing of the limbs were observed. […] The administration according to the recipe was continued for 30 days and, thereafter, dosage of Ambenonium was reduced to 10 mg/day (morning and evening: 5 mg each). This treatment was continued for a further period of 30 days.

[2] = Clinical test in myasthenia gravis, case [II] (person); assay type: in vivo, human
Procedure: as §1
Thereafter, they took 20-25 mg/day of Ambenonium perorally intermittently.
At the first medical examination, eye symptoms such as eyelid drooping and double vision and evervation in limbs were remarkable. As for the walking ability, they barely walked 100 m even when the effect of Ambenonium was exerted.
By peroral administration of 25 mg/day of Ambenonium and 30 mg/day of Coenzyme Q10, muscular contraction was caused 2-3 days after the start of the treatment. Dosage of Ambenonium was reduced to 20 mg/day. After the treatment was continued according to this recipe for one week, the heavy feeling of the body, double vision and the eye symptoms were relieved. Continuous 400 m walking was made possible.

[3] = Acute toxicity test, single high dose, rats; assay type: in vivo, rats of Wistar strain; conditions: for Maximum dose (no case of deaths): single dose, 7 days observation
Excerpt: (§2) In order to evaluate the acute toxicity of a single high dose administration of Coenzyme Q10, male and female rats of Wistar strain and male and female mice of ICR-JCL strain were used, and oral, intramuscular, subcutaneous, and intravenous administrations were studied. For the oral administration of Coenzyme Q10, gum Arabic suspension was used. For the intramuscular, subcutaneous and intravenous administrations, Coenzyme Q10 was used as a solution containing a nonionic surfactant, Nikkol HCO-60. Nikkol HCO-60 is a trade mark of a non-ionic surfactant comprised of hydrogenated castor oil/polyoxyethylene-60 mole ether available from Nikko Chemicals, Co. Ltd., Japan.
(§3) Observation was carried out for 7 days by using six males and six females for each dose group.

[4] = Acute toxicity test, single high dose, mice; assay type: in vivo, mice of ICR-JCL strain; conditions: for Maximum dose (no case of deaths): single dose, 7 days observation
Excerpt: as §2, §3

[5] = Subacute oral toxicity test in rats (5 weeks); assay type: in vivo, rats of Wistar strain
Procedure: (§4) Coenzyme Q10 was compulsorily and orally administered every day for 5 weeks to each group consisting of 10 male rats and 10 female rats of Wistar strain. The dose was 40, 200, and 1000 mg/Kg/day, respectively. Coenzyme Q10 was used in the form of gum Arabic suspension, while the solution containing gum Arabic alone was used as the control group. Collection of blood and urine samples and autopsies were carried out 5 weeks after the initiation of administration.

[6] = Subacute oral toxicity test in rabbits (23 days); assay type: in vivo
Procedure: Coenzyme Q10 was compulsorily and orally administered every day for 23 days to each group consisting of 6 male rabbits and 5 female rabbits. The dose was 6, 60 and 600 mg/Kg/day, respectively. Coenzyme Q10 was used in the form of gum Arabic suspension, whereas the solution containing gum Arabic alone was used as the control group. On the 24th day, blood samples were collected from all the animals, and 3 males and 2 females from each group were then selectively autopsied.

[7] = Chronic oral toxicity test (26 weeks); assay type: in vivo, rats of Wistar strain
Procedure: Coenzyme Q10 was compulsorily and orally administered to each group consisting of 10 male rats and 10 female rats of Wistar strain for consecutive 26 weeks in a ratio of 6 days a week. The dose was 6, 60 and 600 mg/Kg/day, respectively. Coenzyme Q10 was used in the form of gum Arabic suspension, whereas the solution containing gum Arabic alone is used as the control group. Collection of blood and urine samples and autopsies were carried out 26 weeks after the administration.

[8] = Teratogenesis test, rats; assay type: in vivo; conditions: rats, 6, 60, 600 mg/Kg/day
[9] = Teratogenesis test, mice; assay type: in vivo; conditions: mice, 6, 60, 600 mg/Kg/day
[10] = Clinical test in myasthenia gravis, case [III] (person); assay type: in vivo, human
Excerpt: as §1
The patient was attacked by myasthenia. At the first medical examination, only eyelid drooping (eye fissure: left 5 mm, right 2 mm) was observed.

[11] = Overall result of acute, subacute, chronic toxicity and teratogenesis tests; assay type: in vivo
Excerpt: as §2, §4
Coenzyme Q10 was compulsorily and orally administered every day for 23 days to each group consisting of 6 male rabbits and 5 female rabbits. The dose was 6, 60 and 600 mg/Kg/day, respectively. […]

[12] = all routes, maximum doses of Table 1
[13] = any administration group, 7 days
[14] = at the maximum dose in each administration route
[15] = intramuscular, Nikkol HCO-60 solution
[16] = intravenous, Nikkol HCO-60 solution
[17] = subcutaneous, Nikkol HCO-60 solution
[18] = rats, 40, 200, 1000 mg/Kg/day oral, 5 weeks
[19] = rabbits, 6, 60, 600 mg/Kg/day oral, 23 days
[20] = group not stated, spontaneous pneumonia and aspiration pneumonia due to erroneous administration
[21] = rats, 6, 60, 600 mg/Kg/day oral, 26 weeks, vs control group
[22] = Coenzyme Q10 30 mg/day, Ambenonium reduced to 20 mg/day, one week
[23] = Coenzyme Q10 30 mg/day peroral in combination with Distigmine Bromide

Question: With `CC[N+](CC)(CCNC(=O)C(=O)NCC[N+](CC)(CC)Cc1ccccc1Cl)Cc1ccccc1Cl` [Ambenonium] as the molecule, how does the “improvement in the symptoms” value ([1]; Ambenonium alone, 20 mg/day peroral, 4 months) read?
Answer: no significant improvement in the symptoms

Question: And the walking ability ([2]; at first medical examination, under effect of Ambenonium, before Coenzyme Q10, barely walked)?
Answer: ~100 m

Question: Which “toxicity (acute)” value [3] does the source give for `COC1=C(OC)C(=O)C(C/C=C(\C)CC/C=C(\C)CC/C=C(\C)CC/C=C(\C)CC/C=C(\C)CC/C=C(\C)CC/C=C(\C)CC/C=C(\C)CC/C=C(\C)CCC=C(C)C)=C(C)C1=O` [Coenzyme Q10] here?
Answer: extremely low

Question: And the LD50 [3, 12]?
Answer: far higher than the maximum dose mentioned above

Question: What about the “general condition, body weight, food intake and autopsy findings” value [3, 13] of the same molecule?
Answer: no change

Question: And the deaths [3, 14]?
Answer: no case of deaths

Question: And the “Maximum dose (no case of deaths)” value [3, 15]?
Answer: 500 mg/kg

Question: What about the “Maximum dose (no case of deaths)” value [3, 16] of the same molecule?
Answer: 250 mg/kg

Question: And the “Maximum dose (no case of deaths)” value ([3]; oral, gum Arabic suspension)?
Answer: 4000 mg/kg

Question: And the “Maximum dose (no case of deaths)” value [3, 17]?
Answer: 500 mg/kg

Question: And the “toxicity (acute)” value [4]?
Answer: extremely low

Question: And the LD50 [4, 12]?
Answer: far higher than the maximum dose mentioned above

Question: What about the “general condition, body weight, food intake and autopsy findings” value [4, 13] of the same molecule?
Answer: no change

Question: What about the deaths [4, 14] of the same molecule?
Answer: no case of deaths

Question: And the “Maximum dose (no case of deaths)” value [4, 15]?
Answer: 500 mg/kg

Question: And the “Maximum dose (no case of deaths)” value [4, 16]?
Answer: 250 mg/kg

Question: And the “Maximum dose (no case of deaths)” value ([4]; oral, gum Arabic suspension)?
Answer: 4000 mg/kg

Question: What about the “Maximum dose (no case of deaths)” value [4, 17] of the same molecule?
Answer: 500 mg/kg

Question: What about the “dead animals during the experiment” value ([5]; group not stated, spontaneous pneumonia and aspiration pneumonia due to error of administration) of the same molecule?
Answer: 4 animals

Question: And the “toxicity (subacute oral)” value ([5]; rats, 5 weeks)?
Answer: not recognized

Question: What about the “hematological test and biochemical test of blood and urine” value [5, 18] of the same molecule?
Answer: No significant change

Question: And the “weight of each organ” value [5, 18]?
Answer: no significant change

Question: What about the “general condition and body weight” value ([5]; rats, 40, 200, 1000 mg/Kg/day oral, 5 weeks, vs control group) of the same molecule?
Answer: no difference

Question: What about the “electron-microscopic observation of liver (minute structure)” value ([6]; 7th, 14th and 24th days) of the same molecule?
Answer: not recognized abnormal findings

Question: What about the “macroscopical and histological observation” value ([6]; hematoxylin.Eosine staining and liver fat staining, 23 days) of the same molecule?
Answer: abnormalities were not recognized

Question: What about the “hematological test and biochemical test of blood” value [6, 19] of the same molecule?
Answer: Abnormal findings were not obtained

Question: What about the “weight of each organ” value [6, 19] of the same molecule?
Answer: no effect

Question: And the “general condition and increase of body weight” value ([6]; rabbits, 6, 60, 600 mg/Kg/day oral, 23 days, vs control group)?
Answer: no difference

Question: What about the “toxicity (subacute oral)” value ([6]; rabbits, 23 days) of the same molecule?
Answer: not recognized

Question: What about the “deaths, females” value [7, 20] of the same molecule?
Answer: 3 females

Question: What about the “deaths, males” value [7, 20] of the same molecule?
Answer: 11 males

Question: And the “macroscopical and histological observation” value ([7]; hemoxylin.Eosine staining and liver fat staining, 26 weeks, vs control group)?
Answer: abnormalities were not recognized

Question: What about the body weight [7, 21] of the same molecule?
Answer: increased the same as that of the control group

Question: And the general condition [7, 21]?
Answer: no difference

Question: What about the “toxicity (chronic oral)” value ([7]; rats, 26 weeks) of the same molecule?
Answer: no toxicity was observed

Question: What about the weights of organs ([7]; rats, 26 weeks) of the same molecule?
Answer: no significant increase and decrease

Question: What about the “biochemical tests of blood and urine” value ([7]; rats, 26 weeks, vs control group) of the same molecule?
Answer: No significant changes

Question: What about the “leukocytal percentages (hematological findings)” value ([7]; rats, 26 weeks, some increase and decrease, not dose-related) of the same molecule?
Answer: within the range of physiological fluctuations

Question: What about the “adverse effects in mothers, fetuses, and newborns” value [8] of the same molecule?
Answer: no adverse effects

Question: What about the “adverse effects in mothers, fetuses, and newborns” value [9] of the same molecule?
Answer: no adverse effects

Question: And the “walking and work ability” value ([1]; 30 days combination, then Ambenonium reduced to 10 mg/day for further 30 days)?
Answer: long distance walking and light work became possible

Question: And the “symptoms after further reduction of Ambenonium” value ([1]; Ambenonium reduced to 5 mg/day)?
Answer: no worsening of the symptoms was caused and the patient is now getting better

Question: What about the “improvement in symptoms (walking, breathing)” value ([1]; Coenzyme Q10 30 mg/day peroral in combination with Ambenonium, at the start) of the same molecule?
Answer: an improvement in walking and relief in a feeling of difficulty in breathing

Question: What about the “time to muscular contraction after start of treatment” value ([2]; Coenzyme Q10 30 mg/day with Ambenonium 25 mg/day, peroral) of the same molecule?
Answer: 2 to 3 days

Question: And the “continuous walking made possible” value [2, 22]?
Answer: 400 m

Question: And the “heavy feeling of the body, double vision and eye symptoms” value [2, 22]?
Answer: relieved

Question: What about the “ascending and descending stairs” value [10, 23] of the same molecule?
Answer: could ascend and descend stairs easily

Question: And the “need for the dropping lotion” value [10, 23]?
Answer: became unnecessary

Question: What about the “opening of the eyelids” value [10, 23] of the same molecule?
Answer: improve and to stabilize the opening of the eyelids

Question: And the “walking straight looking ahead” value ([10]; Coenzyme Q10 30 mg/day peroral in combination with Distigmine Bromide, difficult before)?
Answer: could walk easily

Question: What about the overall safety [11] of the same molecule?
Answer: very safe drug, without side-effects

Question: What does the source list for `CN(CCCCCCN(C)C(=O)Oc1ccc[n+](C)c1)C(=O)Oc1ccc[n+](C)c1` [Distigmine Bromide]?
Answer: eye fissure, left ([10]; Distigmine Bromide 10 mg/day peroral plus 0.5 % eye drops, 6 months, before: left 5 mm): 6 mm; eye fissure, right ([10]; Distigmine Bromide 10 mg/day peroral plus 0.5 % eye drops, 6 months, before: right 2 mm): 4 mm; symptoms (eyelid drooping) ([10]; Distigmine Bromide peroral plus eye drops, 6 months): improved a little
